One assay relates to prostate line LNCap. Put plainly: In vitro cell culture growth assay (MTS), LNCap.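 Note: viable cell density read by absorbance at 490 nm, growth expressed as percent of vehicle-treated cells on the same plate.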 The class given is cell-based, human. Particulars: Homo sapiens, LNCaP, 72 h, LNCap cells, three days after drug treatment.
For another assay, the system named is breast line MDA468. Put plainly: In vitro cell culture growth assay (MTS), MDA468. The class given is cell-based, human. To be noted: Homo sapiens, 72 h, MDA468 cells, three days after drug treatment. The essentials:
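Steps: plate cells; add inhibitors the next day; incubate 3 days; add MTS dye, which viable cells convert metabolically; measure absorbance at 490 nm; calculate percent of control growth relative to vehicle-treated cells in the same plate.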

A further assay deals with PI3K (Homo sapiens, UniProt P42336). Put plainly: Fluorescence polarization assay for PI3K.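 Note: PI3K kinase reaction on PIP2 with ATP, 30-60 min, product sensed by GST-GRP with red probe in fluorescence polarization (mP), controls without enzyme and at zero time.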 The class given is biochemical. To be noted: PI3Kα; read-out: PI3Kα IC50. In general terms: Fluorescence polarisation rises when a labelled molecule tumbles more slowly, as on binding a larger partner.
Chain of PI3K (P42336 whole entry): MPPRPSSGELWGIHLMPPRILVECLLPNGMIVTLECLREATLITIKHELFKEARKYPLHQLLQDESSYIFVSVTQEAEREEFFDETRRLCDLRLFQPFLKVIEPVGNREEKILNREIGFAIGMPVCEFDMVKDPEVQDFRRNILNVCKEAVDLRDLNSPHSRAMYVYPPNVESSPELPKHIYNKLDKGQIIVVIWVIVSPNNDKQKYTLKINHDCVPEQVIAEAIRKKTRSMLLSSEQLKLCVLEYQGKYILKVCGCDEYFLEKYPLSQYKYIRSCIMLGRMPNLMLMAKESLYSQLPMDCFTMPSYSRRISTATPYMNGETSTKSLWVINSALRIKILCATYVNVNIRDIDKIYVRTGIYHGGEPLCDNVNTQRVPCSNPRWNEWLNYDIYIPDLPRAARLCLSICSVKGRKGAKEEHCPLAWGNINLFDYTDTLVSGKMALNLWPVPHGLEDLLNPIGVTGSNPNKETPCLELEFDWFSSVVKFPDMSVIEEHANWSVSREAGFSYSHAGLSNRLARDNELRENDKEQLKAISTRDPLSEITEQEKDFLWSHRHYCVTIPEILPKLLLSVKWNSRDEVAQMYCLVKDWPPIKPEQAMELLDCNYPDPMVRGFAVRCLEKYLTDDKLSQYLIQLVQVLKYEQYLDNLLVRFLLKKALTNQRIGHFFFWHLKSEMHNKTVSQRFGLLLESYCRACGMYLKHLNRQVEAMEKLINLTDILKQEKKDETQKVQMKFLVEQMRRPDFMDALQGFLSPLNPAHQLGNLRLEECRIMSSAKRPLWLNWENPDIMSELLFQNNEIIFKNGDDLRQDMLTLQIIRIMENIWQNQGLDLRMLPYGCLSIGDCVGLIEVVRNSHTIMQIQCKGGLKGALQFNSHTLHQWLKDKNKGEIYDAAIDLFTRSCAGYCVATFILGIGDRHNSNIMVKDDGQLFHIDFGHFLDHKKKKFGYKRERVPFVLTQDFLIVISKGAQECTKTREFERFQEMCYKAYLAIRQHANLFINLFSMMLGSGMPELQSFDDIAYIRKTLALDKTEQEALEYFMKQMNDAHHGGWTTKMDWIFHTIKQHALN
Chain of PI3K (P27986 whole entry partner): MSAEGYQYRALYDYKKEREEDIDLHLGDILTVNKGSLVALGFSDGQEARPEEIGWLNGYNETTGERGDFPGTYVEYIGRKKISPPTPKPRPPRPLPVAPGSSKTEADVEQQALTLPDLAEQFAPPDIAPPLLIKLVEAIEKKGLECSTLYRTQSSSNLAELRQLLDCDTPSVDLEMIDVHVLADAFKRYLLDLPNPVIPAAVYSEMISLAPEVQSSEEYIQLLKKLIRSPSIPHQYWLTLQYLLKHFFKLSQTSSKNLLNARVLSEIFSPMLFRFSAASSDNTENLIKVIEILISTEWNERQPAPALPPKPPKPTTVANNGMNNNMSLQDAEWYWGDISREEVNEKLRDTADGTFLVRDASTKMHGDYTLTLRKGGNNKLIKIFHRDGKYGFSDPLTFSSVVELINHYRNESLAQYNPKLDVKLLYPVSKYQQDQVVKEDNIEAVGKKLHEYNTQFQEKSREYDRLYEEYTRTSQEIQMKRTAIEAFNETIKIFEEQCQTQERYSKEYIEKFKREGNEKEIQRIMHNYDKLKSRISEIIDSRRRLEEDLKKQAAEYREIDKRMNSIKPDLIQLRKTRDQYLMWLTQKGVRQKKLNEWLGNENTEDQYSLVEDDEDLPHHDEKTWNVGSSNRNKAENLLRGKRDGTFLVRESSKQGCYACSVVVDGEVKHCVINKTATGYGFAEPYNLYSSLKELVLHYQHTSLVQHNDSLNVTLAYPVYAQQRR

A word on the IC50: it is the concentration at which inhibition is half-maximal. For `CCNC(=O)Nc1ccc(-c2nc(N3CCOCC3)c3cnn(C4CCN(C(=O)c5cccnc5)CC4)c3n2)cc1` [Compound 552, 1-ethyl-3-(4-{4-morpholin-4-yl-1-[1-(pyridin-3-ylcarbonyl)piperidin-4-yl]-1H-pyrazolo[3,4-d]pyrimidin-6-yl}phenyl)urea], the IC50 was found to be 60 nM in the assay with prostate line LNCap, 180 nM in the assay on breast line MDA468 and 434 nM on PI3K.
As for `O=C(c1cccnc1)N1CCC(n2ncc3c(N4CCOCC4)nc(-c4ccc5[nH]ccc5c4)nc32)CC1` [Compound 38, 6-(1H-indol-5-yl)-4-morpholin-4-yl-1-[1-(pyridin-3-ylcarbonyl)piperidin-4-yl]-1H-pyrazolo[3,4-d]pyrimidine], the half-inhibitory concentration (IC50) is 380 nM with prostate line LNCap and 1100 nM with breast line MDA468.
The corresponding values for `CC(=O)Nc1ccc(-c2nc(N3CCOCC3)c3cnn(-c4ccccc4)c3n2)cc1` [Compound 108, N-[4-(4-morpholin-4-yl-1-phenyl-1H-pyrazolo[3,4-d]pyrimidin-6-yl)phenyl]acetamide] are 60000 nM and 60000 nM.
The corresponding values for `CN1CCC(C(=O)Nc2ccc(-c3nc(N4CCOCC4)c4cnn(-c5ccccc5)c4n3)cc2)CC1` [Compound 141] are 3000 nM and 3800 nM.
As for `NCC(=O)Nc1ccc(-c2nc(N3CCOCC3)c3cnn(-c4ccccc4)c3n2)cc1` [Compound 136], the IC50 was 1000 nM with prostate line LNCap and 400 nM in the assay on breast line MDA468.
The corresponding values for `CC(=O)Nc1cccc(-c2nc(N3CCOCC3)c3cnn(C4CCN(Cc5ccccc5)CC4)c3n2)c1` [Compound 78] are 8000 nM and 12000 nM.
The corresponding values for `Oc1cccc(-c2nc(N3CCOCC3)c3cnn(C4CCN(Cc5ccccc5)CC4)c3n2)c1` [Compound 8] are 220 nM and 1900 nM.
The corresponding values for `Nc1cccc(-c2nc(N3CCOCC3)c3cnn(-c4ccccc4)c3n2)c1` [Compound 107] are 3500 nM and 10000 nM.
For `COC(=O)Nc1ccc(-c2nc(N3CCOCC3)c3cnn(C4CCN(C(=O)OC)CC4)c3n2)cc1` [Compound 740, methyl 4-(6-{4-[(methoxycarbonyl)amino]phenyl}-4-morpholin-4-yl-1H-pyrazolo[3,4-d]pyrimidin-1-yl)piperidine-1-carboxylate], the figures for the 50% inhibitory concentration (IC50) with prostate line LNCap and in the assay with breast line MDA468 were 310 nM and 1300 nM, respectively.
In the same order, the values of `c1ccc(-n2ncc3c(N4CCOCC4)nc(-c4csc5ccccc45)nc32)cc1` [Compound 7] are 20000 nM and 38000 nM.
In the same order, the values of `Nc1ccc(-c2nc(N3CCOCC3)c3cnn(C4CCN(Cc5ccccc5)CC4)c3n2)cc1` [Compound 79] are 4500 nM and 10000 nM.
`CNC(=S)Nc1ccc(-c2nc(N3CCOCC3)c3cnn(C4CCN(Cc5cccnc5)CC4)c3n2)cc1` [Example 377, 1-methyl-3-(4-{4-morpholin-4-yl-1-[1-(pyridin-3-ylmethyl)piperidin-4-yl]-1H-pyrazolo[3,4-d]pyrimidin-6-yl}phenyl)thiourea]: the concentration for half-maximal inhibition (IC50) with prostate line LNCap was found to be 70 nM; with breast line MDA468 it was 500 nM.
The corresponding values for `Nc1ccc(-c2nc(N3CCOCC3)c3cnn(-c4ccccc4)c3n2)cc1` [Compound 106, 4-(4-morpholin-4-yl-1-phenyl-1H-pyrazolo[3,4-d]pyrimidin-6-yl)aniline4-(4-morpholin-4-yl-1-phenyl-1H-pyrazolo[3,4-d]pyrimidin-6-yl)aniline] are 3000 nM and 11000 nM.
The corresponding values for `O=C(c1ccccc1)N1CCC(n2ncc3c(N4CCOCC4)nc(-c4cccc(O)c4)nc32)CC1` [Compound 25, 3-[1-(1-benzoylpiperidin-4-yl)-4-morpholin-4-yl-1H-pyrazolo[3,4-d]pyrimidin-6-yl]phenol] are 140 nM and 700 nM.

The values are drawn from patent US20080234262A1 (Wyeth, priority 2007, published 2008).
